Experimental data published in PubChem BioAssay (NCI).
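Each compound was tested at five concentrations against cells in 96-well plates for 48 hours. TGI is the concentration that stops growth completely.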

Key:
Assay in all cases: NCI tumour cell line growth inhibition, 48 h
[1] = tested on: SNB-19 CNS
[2] = tested on: IGROV1 ovarian
[3] = tested on: SW-620 colon
[4] = tested on: SK-MEL-28 melanoma
[5] = tested on: NCI-H226 lung
[6] = tested on: TK-10 renal
[7] = tested on: MDA-N
[8] = tested on: 786-0 renal
[9] = tested on: RXF 393 renal
[10] = tested on: KM12 colon
[11] = tested on: OVCAR-5 ovarian
[12] = tested on: MALME-3M melanoma
[13] = tested on: SF-268 CNS
[14] = tested on: HCC-2998 colon
[15] = tested on: OVCAR-8 ovarian
[16] = tested on: EKVX NSCLC
[17] = tested on: HOP-62 NSCLC
[18] = tested on: HCT-15 colon
[19] = tested on: M14 melanoma
[20] = tested on: OVCAR-4 ovarian
[21] = tested on: HOP-92 NSCLC
[22] = tested on: U251 CNS
[23] = tested on: LOX IMVI melanoma
[24] = tested on: CCRF-CEM leukemia
[25] = tested on: SF-539 CNS
[26] = tested on: UO-31 renal
[27] = tested on: UACC-257 melanoma
[28] = tested on: BT-549 breast
[29] = tested on: MCF7 breast
[30] = tested on: SR leukemia
[31] = tested on: NCI-H522 lung
[32] = tested on: HT29 colon
[33] = tested on: HL-60(TB) leukemia
[34] = tested on: A498 renal
[35] = tested on: SN12C renal
[36] = tested on: CAKI-1 renal
[37] = tested on: NCI/ADR-RES ovarian
[38] = tested on: HCT-116 colon
[39] = tested on: SF-295 CNS
[40] = tested on: OVCAR-3 ovarian
[41] = tested on: NCI-H23 lung
[42] = tested on: SNB-75 CNS
[43] = tested on: PC-3 prostate
[44] = tested on: MDA-MB-435
[45] = tested on: SK-OV-3 ovarian
[46] = tested on: UACC-62 melanoma
[47] = tested on: ACHN renal
[48] = tested on: HS 578T breast
[49] = tested on: SK-MEL-2 melanoma
[50] = tested on: MOLT-4 leukemia
[51] = tested on: NCI-H460 lung
[52] = tested on: A549 NSCLC
[53] = tested on: K-562 leukemia
[54] = tested on: RPMI-8226 leukemia
[55] = tested on: COLO 205 colon
[56] = tested on: SK-MEL-5 melanoma
[57] = tested on: MDA-MB-231 breast
[58] = tested on: DU-145 prostate

## Cc1cc2c(cc1C)[n+]([O-])c(NCCCN(C)C)c(C#N)[n+]2[O-]
[1]
  TGI: > 100 µM
[2]
  TGI: > 100 µM
[3]
  TGI: > 100 µM
[4]
  TGI: > 100 µM
[5]
  TGI: > 100 µM
[6]
  TGI: > 100 µM
[7]
  TGI: > 100 µM
[8]
  TGI: > 100 µM
[9]
  TGI: > 100 µM
[10]
  TGI: > 100 µM
[11]
  TGI: > 100 µM
[12]
  TGI: > 100 µM
[13]
  TGI: > 100 µM
[14]
  TGI: > 100 µM
[15]
  TGI: > 100 µM
[16]
  TGI: > 100 µM
[17]
  TGI: > 100 µM
[18]
  TGI: > 100 µM
[19]
  TGI: > 100 µM
[20]
  TGI: > 100 µM
[21]
  TGI: > 100 µM
[22]
  TGI: > 100 µM
[23]
  TGI: > 100 µM
[24]
  TGI: > 100 µM
[25]
  TGI: > 100 µM
[26]
  TGI: > 100 µM
[27]
  TGI: > 100 µM
[28]
  TGI: > 100 µM
[29]
  TGI: > 100 µM
[30]
  TGI: > 100 µM
[31]
  TGI: > 100 µM
[32]
  TGI: > 100 µM
[33]
  TGI: > 100 µM
[34]
  TGI: > 100 µM
[35]
  TGI: > 100 µM
[36]
  TGI: > 100 µM
[37]
  TGI: > 100 µM
[38]
  TGI: > 100 µM
[39]
  TGI: > 100 µM
[40]
  TGI: > 100 µM
[41]
  TGI: > 100 µM
[42]
  TGI: > 100 µM
[43]
  TGI: > 100 µM
[44]
  TGI: > 100 µM
[45]
  TGI: > 100 µM
[46]
  TGI: > 100 µM
[47]
  TGI: > 100 µM
[48]
  TGI: > 100 µM
[49]
  TGI: > 100 µM
[50]
  TGI: > 100 µM
[51]
  TGI: > 100 µM
[52]
  TGI: > 100 µM
[53]
  TGI: > 100 µM
[54]
  TGI: > 100 µM

## CC(=O)OC1COC(n2c3ccccc3c3ccc4c5ccccc5[nH]c4c32)C(OC(C)=O)C1OC(C)=O (stereo not given)
[1]
  TGI: > 100 µM
[2]
  TGI: 30.8 µM
[3]
  TGI: > 100 µM
[4]
  TGI: > 100 µM
[7]
  TGI: > 100 µM
[10]
  TGI: 37.9 µM
[11]
  TGI: > 100 µM
[55]
  TGI: > 100 µM
[56]
  TGI: > 100 µM
[14]
  TGI: > 100 µM
[17]
  TGI: 53.3 µM
[18]
  TGI: > 100 µM
[20]
  TGI: > 100 µM
[21]
  TGI: 87.3 µM
[22]
  TGI: 74.2 µM
[24]
  TGI: > 100 µM
[26]
  TGI: > 100 µM
[27]
  TGI: > 100 µM
[28]
  TGI: > 100 µM
[31]
  TGI: 44.6 µM
[32]
  TGI: 62.8 µM
[34]
  TGI: 77.7 µM
[36]
  TGI: 65.9 µM
[38]
  TGI: > 100 µM
[39]
  TGI: 33.3 µM
[40]
  TGI: > 100 µM
[41]
  TGI: > 100 µM
[42]
  TGI: 33.2 µM
[43]
  TGI: 96.5 µM
[44]
  TGI: > 100 µM
[45]
  TGI: 52.1 µM
[46]
  TGI: > 100 µM
[49]
  TGI: > 100 µM
[50]
  TGI: > 100 µM
[51]
  TGI: 57.6 µM
[52]
  TGI: > 100 µM
[53]
  TGI: 82.4 µM
[54]
  TGI: > 100 µM

## CCOC(=O)Cc1cc(=O)oc2cc(O)ccc12
[1]
  TGI: > 100 µM
[2]
  TGI: > 100 µM
[3]
  TGI: > 100 µM
[4]
  TGI: > 100 µM
[5]
  TGI: > 100 µM
[6]
  TGI: > 100 µM
[7]
  TGI: > 100 µM
[8]
  TGI: > 100 µM
[9]
  TGI: > 100 µM
[10]
  TGI: > 100 µM
[11]
  TGI: > 100 µM
[12]
  TGI: > 100 µM
[55]
  TGI: > 100 µM
[56]
  TGI: > 100 µM
[13]
  TGI: > 100 µM
[15]
  TGI: > 100 µM
[16]
  TGI: > 100 µM
[18]
  TGI: > 100 µM
[19]
  TGI: > 100 µM
[22]
  TGI: > 100 µM
[23]
  TGI: > 100 µM
[24]
  TGI: > 100 µM
[25]
  TGI: > 100 µM
[26]
  TGI: > 100 µM
[27]
  TGI: > 100 µM
[28]
  TGI: > 100 µM
[30]
  TGI: > 100 µM
[31]
  TGI: > 100 µM
[32]
  TGI: > 100 µM
[33]
  TGI: > 100 µM
[34]
  TGI: > 100 µM
[35]
  TGI: > 100 µM
[36]
  TGI: > 100 µM
[37]
  TGI: > 100 µM
[38]
  TGI: > 100 µM
[39]
  TGI: > 100 µM
[57]
  TGI: > 100 µM
[40]
  TGI: > 100 µM
[41]
  TGI: > 100 µM
[42]
  TGI: > 100 µM
[43]
  TGI: > 100 µM
[44]
  TGI: > 100 µM
[45]
  TGI: > 100 µM
[46]
  TGI: > 100 µM
[47]
  TGI: > 100 µM
[48]
  TGI: > 100 µM
[49]
  TGI: > 100 µM
[50]
  TGI: > 100 µM
[58]
  TGI: > 100 µM
[51]
  TGI: > 100 µM
[52]
  TGI: > 100 µM
[53]
  TGI: > 100 µM
[54]
  TGI: > 100 µM
